Results from patent US20040019429A1, “Methods and systems for analyzing complex biological systems” (priority 2001, published 2004).
“Also recorded” adds a separate entry of the source.

Legend:
[1] = system: Arabidopsis thaliana; test: MOA1 biochemical (metabolite) profiling by LC-MS and GC-MS; settings: 20 minutes and 1 hour after spraying
[2] = system: Arabidopsis thaliana; test: MOA1 phenotypic profiling of sprayed plants (eleven phenotypic characteristics); assay type: in vivo; settings: hierarchical cluster analysis of eleven phenotypic characteristics
[3] = system: Arabidopsis thaliana; test: MOA1 gene expression profiling (arrays of 22,000 Arabidopsis genes); settings: for No. of Lethal Genes Altered: altered genes identified as essential for plant growth in internal database
[4] = system: Magnaporthe grisea; assay type: cell-based
[5] = system: Arabidopsis thaliana plants; test: SOA1 phenotypic analysis of herbicide-treated plants (MIC, Tmic, leaf traits, symptom class); assay type: in vivo; settings: for Characteristic symptoms of treated plants (in words): SOA1 phenotypic analysis
[6] = system: yeast cells; test: AF1 combined gene expression and metabolite data mapped to KEGG reactions and pathways; parameters: species or system Saccharomyces cerevisiae
From the text: The pathway score indicates how meaningful the mapping is, or how likely it is to be correctly indicative of the pathway involved in the perturbation under examination. The method provides a pathway score based on perturbation levels of genes and/or compounds and the information content of each gene and/or compound in the pathway, i.e., a pathway score indicates the extent to which other pathways are mapped to a gene/compound. For example, imagine that two genes are perturbed in a particular experiment. One gene maps to only one pathway, giving a high degree of probability that the perturbed pathway is the one identified in the mapping. The second gene maps to three pathways. In the later example, there is only one-third the probability that the pathway identified in the mapping is the one perturbed. […] Degree of perturbation can be calculated, for example, based on a number of standard deviations from a norm, and included in an equation such as the one shown above, so that not only the number of pathways is taken into account, but also accounts for the amount of gene transcript, or compound present as compared to a control. […] KEGG links 676 compounds measured in AF1 to a total of 92 pathways. Of the 676 compounds under consideration, 77 were detected in the AF1 samples. […]

[7] = system: Saccharomyces cerevisiae wild type strain BY4743; test: AF1 yeast metabolite analysis by GC-MS and LC-MS after antifungal drug treatment; assay type: cell-based; settings: for # Compounds perturbed by treatment: 2X MIC, two hours
[8] = numeric value standardized to mock treated plants, SOA1

**Q.** What does the source list for CC(C)OC(=O)Nc1cccc(Cl)c1 [Chloropropham]?
**A.** Regulated metabolites relative to control (in words) [1]: neither butylate nor chlorpropham treatment resulted in many changes in these commonly regulated metabolites; Phenotype and phenotypic clustering (in words) [2]: neither showed a strong herbicidal phenotype

**Q.** CS(=O)(=O)c1cc(C(F)(F)F)ccc1C(=O)c1cnoc1C1CC1 [Isoxaflutole] was tested. Which “Regulated metabolites relative to control (in words)” value [1] did it give?
**A.** both tyrosine and phenylalanine were up-regulated relative to the control; also recorded: Alpha-tocopherol was detected, but the levels were not significantly changed relative to the control at the early time points; also recorded: (tyrosine and phenylalanine), began to accumulate relative to the control after one hour

**Q.** What about the “Gene expression perturbation (in words)” value ([3]; MOA1, one-hour time point) of the same compound?
**A.** alterations in the expression of genes involved in the homogentisate biosynthetic pathway were not observed

**Q.** And the “No. of Lethal Genes Altered” value ([3]; 1 hr)?
**A.** 15

**Q.** What about the “Growth of M. grisea at a sub-inhibitory concentration (minimal, supplemented, minimal plus tyrosine media)” value ([4]; concentration insufficient to inhibit growth) of the same compound?
**A.** growth was inhibited in minimal plus tyrosine media, while growth in minimal media was unaffected

**Q.** For Nc1nc[nH]n1 [Amitrole], which “Phenotype and phenotypic clustering (in words)” value [2] is on record?
**A.** exhibited chlorosis and not true bleaching

**Q.** And the “Characteristic symptoms of treated plants (in words)” value [5]?
**A.** leaf bleaching and leaf enlargement

**Q.** CP(=O)(O)CCC(N)C(=O)O (stereo not shown) [Glufosinate] was tested. Which “Regulated metabolites relative to control (in words)” value [1] did it give?
**A.** Only a few, if any, stress-related metabolites were observed

**Q.** What about the “Regulated Genes Following Herbicide Treatment: Down” value ([3]; 1 hr, p < 0.5, number of genes of 22,000) of the same compound?
**A.** 54

**Q.** And the “No. of Lethal Genes Altered” value ([3]; 1 hr)?
**A.** 10

**Q.** What about the “Growth of M. grisea on various nitrogen sources, Tier 4” value [4] of the same compound?
**A.** only able to utilize glutamine and glutamate as nitrogen sources

**Q.** What about the “Characteristic symptoms of treated plants (in words)” value [5] of the same compound?
**A.** Chlorosis and leaf curling

**Q.** And the “leafCurling (Dev.)” value [5, 8]?
**A.** 2

**Q.** What about the “leafTwisting (Dev.)” value [5, 8] of the same compound?
**A.** 1

**Q.** And the “leafWidth (Dev.)” value [5, 8]?
**A.** −2

**Q.** And the “matureLeafAnthocyanins (Dev.)” value [5, 8]?
**A.** 0

**Q.** And the “matureLeafChlorosis (Dev.)” value [5, 8]?
**A.** 3

**Q.** And the “matureLeafNecrosis (Dev.)” value [5, 8]?
**A.** 0

**Q.** And the “newLeafAnthocyanins (Dev.)” value [5, 8]?
**A.** 0

**Q.** And the “newLeafChlorosis (Dev.)” value [5, 8]?
**A.** 3

**Q.** And the “newLeafNecrosis (Dev.)” value [5, 8]?
**A.** 0

**Q.** What about the “pointedLeaves (Dev.)” value [5, 8] of the same compound?
**A.** 1

**Q.** And the “tMic (Dev.)” value ([5]; score for time to full range of symptoms at the MIC, SOA1)?
**A.** 1

**Q.** Which results are given for CCSC(=O)N(CC(C)C)CC(C)C [Butylate]?
**A.** Regulated metabolites relative to control (in words) [1]: neither butylate nor chlorpropham treatment resulted in many changes in these commonly regulated metabolites; Phenotype and phenotypic clustering (in words) [2]: neither showed a strong herbicidal phenotype

**Q.** What does the source list for C[C@@H]1[C@H](O)[C@@H](C)/C=C/C=C/C=C/C=C/C=C/C=C/C=C/[C@H](O[C@@H]2O[C@H](C)[C@@H](O)[C@H](N)[C@@H]2O)C[C@@H]2O[C@](O)(C[C@@H](O)C[C@@H](O)[C@H](O)CC[C@@H](O)C[C@@H](O)CC(=O)O[C@H]1C)C[C@H](O)[C@H]2C(=O)O [Amphoteracin B]?
**A.** Number Of Pathways Having at Least One Enzyme and One Compound Perturbed (# Reactions) [6]: 37; Number of Reactions Having an Enzyme and at Least One Compound Perturbed [6]: 54; # Compounds perturbed by treatment ([7]; P < 0.05): 16; # Compounds perturbed by treatment ([7]; P < 0.1): 21; Fold Change, abscisic acid ([7]; platform LC): 0; Fold Change, adenosine ([7]; platform LC): 0; Fold Change, riboflavin ([7]; platform LC): 0; Fold Change, selenoOLmethionine ([7]; platform nLC): 0.8515
